Data reported in PubChem BioAssay (NCI).
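48-hour exposure; five concentrations; linearly interpolated endpoints. GI50 marks 50% less growth. TGI marks complete inhibition of growth.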

Legend:
Experiment in all cases: NCI tumour cell line growth inhibition, 48 h
[1] = system: BT-549 breast
[2] = system: HL-60(TB) leukemia
[3] = system: HS 578T breast
[4] = system: MDA-MB-435
[5] = system: NCI-H460 lung
[6] = system: PC-3 prostate
[7] = system: NCI-H226 lung
[8] = system: P388/ADR leukemia
[9] = system: SK-MEL-28 melanoma
[10] = system: XF 498 CNS

SMILES | TGI [1] [µM] | TGI [2] [µM] | TGI [3] [µM] | TGI [4] [µM] | TGI [5] [µM] | TGI [6] [µM] | TGI [7] [µM] | TGI [8] [µM] | TGI [9] [µM] | TGI [10] [µM] | GI50 [2] [µM] | GI50 [7] [µM] | GI50 [5] [µM] | GI50 [8] [µM] | GI50 [9] [µM] | GI50 [10] [µM] | GI50 [1] [µM] | GI50 [3] [µM] | GI50 [4] [µM] | GI50 [6] [µM]
N#Cc1c(NC(=S)NC(=O)c2ccccc2)nc2c(c1-c1ccccc1)CCC2 | > 100 | > 100 | > 100 | > 100 | > 100 | > 100 |  |  |  |  |  |  |  |  |  |  |  |  |  | 
Nc1n[nH]c(=O)[nH]1 |  | > 100 |  |  | > 100 |  | > 100 | > 100 | > 100 | > 100 |  |  |  |  |  |  |  |  |  | 
O=[Se]([O-])c1ccccc1.O=[Se]([O-])c1ccccc1.[OH3+].[OH3+].[Pt+2] |  | 5.66 |  |  | > 86.1 |  | 52.5 | 11.8 | 36.1 | 26.2 | 2.19 | 12.9 | 18.6 | 2.12 | 10.8 | 7.72 |  |  |  | 
C=CC(=O)Nc1cccc(-c2nc(SC)nc(Nc3ccccc3OC)c2C#N)c1 | 38.5 | 13 | 6.61 | 4.48 |  | 4.9 | 36.1 |  | 5.71 |  | 2.53 | 9.7 |  |  | 2.29 |  | 3.19 | 2.34 | 1.93 | 1.94
COC1OC(=O)[C@H]2O[N+]([O-])=C(C)[C@@H]12 (some centres not stated) |  | > 100 |  |  | > 100 |  | > 100 | > 100 | > 100 | > 100 |  |  |  |  |  |  |  |  |  | 
O=C(O)c1ccc(NC(c2ccccc2)c2ccc3cccnc3c2O)cc1 (configuration not stated) | > 74 | 10.4 | > 73.7 | > 100 | > 48.5 | > 96 | > 31 |  | > 100 |  |  |  |  |  |  |  |  |  |  | 
O=C(Nc1ccc(I)cc1C(=O)NCCO)c1cccs1 | > 100 | > 100 |  | > 100 | > 100 | > 100 | > 100 |  | > 100 |  |  |  |  |  |  |  |  |  |  | 
CCC(=O)C(c1ccccc1)c1ccccn1 (configuration not stated) | > 100 | > 100 | > 100 | > 100 | > 100 | > 100 | > 100 |  | > 100 |  |  |  |  |  |  |  |  |  |  | 
CSC1=Nc2ccccc2N(C)c2c1c(-c1ccccc1)nn2C | > 100 | 34.3 | > 100 | > 100 | > 100 | > 100 |  |  | > 100 |  |  |  |  |  |  |  |  |  |  | 
Cc1[nH]c(/C=C2\C(=O)Nc3ccc(S(=O)(=O)Cc4c(Cl)cccc4Cl)cc32)c(C)c1C(=O)N1CCC[C@@H]1CN1CCCC1 | 83.1 | 5.49 | 43.9 | 2.2 |  | > 21.5 | 54.8 |  | 2.75 |  | 1.97 | 15.1 |  |  | 1.4 |  | 14.1 | 7.72 | 0.865 | 1.73
O=C1CC(=O)N(c2ccccc2)N1/C(=C/c1ccccc1)c1ccccc1 | 50.2 |  | 45.4 | 36.5 | 39 | 47.7 | 73.5 |  | 26 |  |  |  |  |  |  |  |  |  |  | 
CCn1cc(C(c2ccc(Cl)cc2)n2ccnc2)c2cc(Br)ccc21 (configuration not stated) | 31.9 |  | 47.2 | 27 |  | 22.8 | 76.5 |  |  |  |  |  |  |  |  |  |  |  |  | 
OCC1CCCC(n2cnc3c(=S)nc[nH]c32)O1 (configuration not stated) | > 100 |  | > 100 | > 100 | > 100 | > 100 | > 100 |  | > 100 |  |  |  |  |  |  |  |  |  |  | 
